Assay results published in patent US20060241177A1, “Novel compounds, pharmaceutical compositions containing same, and methods of use for same” (priority 2002, published 2006).
≈ marks a conversion by molar mass, not a printed value. Where two headings read alike, the source gives them in different places.

Experiments:
Assay type in all cases: cell-based
[1] = test system: MCF-7 human breast cancer cells; assay: [14C]acetate incorporation into total lipids (fatty acid synthesis in whole cells); conditions: for IC50: Homo sapiens, MCF7, MCF-7 cells; for 14C (IC50): MCF-7 cells
Procedure: Measurement of [^14C]Acetate Incorporation into Total Lipids and Determination of IC50 of Compounds
This assay measures the incorporation of [^14C] acetate into total lipids and is a measure of fatty acid synthesis pathway activity in vitro. It is utilized to measure inhibition of fatty acid synthesis in vitro.
MCF-7 human breast cancer cells cultured as above, are plated at 5×10^4 cells per well in 24-well plates. Following overnight incubation, the compounds to be tested, solubilized in DMSO, are added at 5, 10, and 20 μg/ml in triplicate, with lower concentrations tested if necessary. DMSO is added to triplicate wells for a vehicle control. C75 is run at 5 and 10 μg/ml in triplicate as positive controls. After 4 hours of incubation, 0.25 μCi of [^14C]acetate (10 μl volume) is added to each well.
After 2 hours of additional incubation, medium is aspirated from the wells and 800 μl of chloroform:methanol (2:1) and 700 μl of 4 mM MgCl2 is added to each well. Contents of each well are transferred to 1.5 ml Eppendorf tubes, and spun at full-speed for 2 minutes in a high-speed Eppendorf Microcentrifuge 5415D. After removal of the aqueous (upper) layer, an additional 700 μl of chloroform:methanol (2:1) and 500 μl of 4 mM MgCl2 are added to each tube and then centrifuged for 1 minutes as above. The aqueous layer is removed with a Pasteur pipette and discarded. An additional 400 μl of chloroform:methanol (2:1) and 200 μl of 4 mM MgCl2 are added to each tube, then centrifuged and aqueous layer is discarded. The lower (organic) phase is transferred into a scintillation vial and dried at 40° C. under N2 gas. Once dried, 3 ml of scintillant (APB #NBC5104) is added and vials are counted for ^14C. The Beckman Scintillation counter calculates the average cpm values for triplicates.
The IC50 for the compounds is defined as the concentration of drug leading to a 50% reduction in [^14C] acetate incorporation into lipids compared to controls. This is determined by plotting the average cpm for each inhibitor concentration tested, performing linear regression and computing the best-fit line, r^2 values, and 95% confidence intervals. The average cpm values are computed by the Beckman scintillation counter (model LS6500) for each compound concentration. Computation of linear regression, best-fit line, r^2, and 95% confidence intervals are calculated using Prism Version 3.0 (Graph Pad Software).

[2] = test system: MCF-7 human breast cancer cells; assay: Crystal violet cell growth assay; conditions: MCF7, MCF-7 cells, 72 hours, read-out: Cr. Violet (IC50)
Procedure: Crystal Violet Cell Growth Assay
The crystal violet assay measures cell growth but not cytotoxicity. This assay employs crystal violet staining of fixed cells in 96-well plates with subsequent solubilization and measurement of OD490 on a spectrophotometer. The OD490 corresponds to cell growth per unit time measured. Cells are treated with the compounds of interest or vehicle controls and IC50 for each compound is computed.
To measure the cytotoxicity of specific compounds against cancer cells, 5×10^4 MCF-7 human breast cancer cells, obtained from the American Type Culture Collection are plated per well in 24 well plates in DMEM medium with 10% fetal bovine serum, penicillin, and streptomycin. Following overnight culture at 37° C. and 5% CO2, the compounds to be tested, dissolved in DMSO, are added to the wells in 1 μl volume at the following concentrations: 50, 40, 30, 20, and 10 μg/ml in triplicate. Additional concentrations are tested if required. 1 μl of DMSO is added to triplicate wells as the vehicle control. C75 is run at 10, and 5 μg/ml in triplicate as positive controls.
After 72 hours of incubation, cells are stained with 0.5 ml of Crystal Violet stain (0.5% in 25% methanol) in each well. After 10 minutes, wells are rinsed, air dried, and then solubilized with 0.5 ml 10% sodium dodecylsulfate with shaking for 2 hours. Following transfer of 100 μl from each well to a 96-well plate, plates are read at OD490 on a Molecular Devices SpectraMax Plus Spectrophotometer Average OD490 values are computed using SOFTmax Pro Software (Molecular Devices) and IC50 values are determined by linear regression analysis using Prism version 3.02 (Graph Pad Software, San Diego).

[3] = test system: Staphylococcus aureus (ATCC #29213); assay: Broth microdilution MIC; conditions: 24 hours; for MIC: Staphylococcus aureus, ATCC29213
Procedure: (§1) A broth microdilution assay is used to assess the antimicrobial activity of the compounds. Compounds are tested at twofold serial dilutions, and the concentration that inhibits visible growth (OD600 at 10% of control) is defined as the MIC. Microorganisms tested include Staphylococcus aureus (ATCC #29213), Enterococcus faecalis (ATCC #29212), Pseudomonas aeruginosa (ATCC #27853), and Escherichia coli (ATCC #25922). The assay is performed in two growth media, Mueller Hinton Broth and Trypticase Soy Broth.
(§2) A blood (Tsoy/5% sheep blood) agar plate is inoculated from frozen stocks maintained in T soy broth containing 10% glycerol and incubated overnight at 37° C. Colonies are suspended in sterile broth so that the turbidity matches the turbidity of a 0.5 McFarland standard. The inoculum is diluted 1:10 in sterile broth (Mueller Hinton or Trypticase soy) and 195 ul is dispensed per well of a 96-well plate. The compounds to be tested, dissolved in DMSO, are added to the wells in 5 ul volume at the following concentrations: 25, 12.5, 6.25, 3.125, 1.56 and 0.78 ug/ml in duplicate. Additional concentrations are tested if required. 5 ul of DMSO added to duplicate wells are the vehicle control. Serial dilutions of positive control compounds, vancomycin (E. faecalis and S. aureus) and tobramycin (E. coli and P. aeruginosa), are included in each rum
(§3) After 24 hours of incubation at 37° C., plates are read at OD600 on a Molecular Devices SpectraMax Plus Spectrophotometer. Average OD600 values are computed using SOFTmax Pro Software (Molecular Devices) and MIC values are determined by linear regression analysis using Prism version 3.02 (Graph Pad Software, San Diego). The MIC is defined as the concentration of compound required to produce an OD600 reading equivalent to 10% of the vehicle control reading.

[4] = test system: Enterococcus faecalis (ATCC #29212); assay: Broth microdilution MIC; conditions: 24 hours; for MIC: Enterococcus faecalis, ATCC29212
Procedure: as §1, §2, §3

[5] = test system: Pseudomonas aeruginosa (ATCC #27853); assay: Broth microdilution MIC; conditions: 24 hours; for MIC: Pseudomonas aeruginosa, ATCC27853
Procedure: as §1, §2, §3

[6] = test system: Escherichia coli (ATCC #25922); assay: Broth microdilution MIC; conditions: 24 hours; for MIC: Escherichia coli, ATCC25922
Procedure: as §1, §2, §3

[7] = Mueller Hinton Broth, read-out: SA/MH (MIC)
[8] = Trypticase Soy Broth, read-out: SA/Tsoy (MIC)
[9] = Mueller Hinton Broth, read-out: EF/MH (MIC)
[10] = Trypticase Soy Broth, read-out: EF/Tsoy (MIC)
[11] = Mueller Hinton Broth, read-out: PSAE/MH (MIC)
[12] = Trypticase Soy Broth, read-out: PSAE/Tsoy (MIC)
[13] = Trypticase Soy Broth, read-out: Ecoli/Tsoy (MIC)

IC50 [2] [µg/mL]	Ecoli/Tsoy (MIC) ([6]; Trypticase Soy Broth)	14C (IC50) [1]	MIC [5, 11] [µg/mL]	MIC [5, 12] [µg/mL]	SA/Tsoy (MIC) ([3]; Trypticase Soy Broth)	MIC ([6]; Mueller Hinton Broth, read-out: Ecoli/MH (MIC)) [µg/mL]	EF/Tsoy (MIC) ([4]; Trypticase Soy Broth)	EF/MH (MIC) ([4]; Mueller Hinton Broth)	SMILES	IC50 [1] [µg/mL]	MIC [3, 7] [µg/mL]	MIC [3, 8] [µg/mL]	MIC [4, 9] [µg/mL]	MIC [4, 10] [µg/mL]	PSAE/MH (MIC) ([5]; Mueller Hinton Broth)	PSAE/Tsoy (MIC) ([5]; Trypticase Soy Broth)	Ecoli/MH (MIC) ([6]; Mueller Hinton Broth)	MIC [6, 13] [µg/mL]
> 50	–	–	–	–	–	–	–	–	CCCCCCCCC1OC(=O)[C@@H](C)[C@H]1C(=O)O (stereo partly drawn)	31 (≈ 121 µM)	–	–	–	–	–	–	–	–
49 (≈ 191 µM)	Neg	Neg	–	–	–	–	–	–	CCCCCCCCC1OC(=O)[C@H](C)[C@H]1C(=O)O (stereo partly drawn)	–	43 (≈ 168 µM)	60 (≈ 234 µM)	109 (≈ 425 µM)	94 (≈ 367 µM)	Neg	Neg	Neg	–
23.7 (≈ 80.8 µM)	–	Neg (stim)	280 (≈ 954 µM)	137 (≈ 467 µM)	–	–	–	–	C=CCNC(=O)C1=C(C)C(=O)O[C@H]1CCCCCCCC	–	79 (≈ 269 µM)	87 (≈ 297 µM)	115 (≈ 392 µM)	203 (≈ 692 µM)	–	–	Neg	199 (≈ 678 µM)
43.9 ± 4.8 (≈ 149 µM)	Neg	–	–	–	Neg	108 (≈ 366 µM)	–	–	C=CCNC(=O)[C@H]1[C@H](CCCCCCCC)OC(=O)[C@H]1C (racemic)	25.7 (≈ 87 µM)	107 (≈ 362 µM)	–	91 (≈ 308 µM)	114 (≈ 386 µM)	Neg	Neg	–	–
30 (≈ 102 µM)	–	Neg	218 (≈ 738 µM)	160 (≈ 542 µM)	–	–	Neg	–	C=CCNC(=O)[C@H]1[C@H](CCCCCCCC)OC(=O)[C@@H]1C (racemic)	–	80 (≈ 271 µM)	193 (≈ 653 µM)	84 (≈ 284 µM)	–	–	–	Neg	155 (≈ 525 µM)
2.2 ± 1 (≈ 7.4 µM)	Neg	–	–	–	–	–	–	Neg	C=C1C(=O)O[C@@H](CCCCCCCC)[C@@H]1C(=O)NCCO (racemic)	2.3 ± 1.3 (≈ 7.73 µM)	44 (≈ 148 µM)	48 (≈ 161 µM)	–	77 (≈ 259 µM)	Neg	Neg	Neg	–

SMILES	IC50 [2] [µg/mL]	Ecoli/Tsoy (MIC) ([6]; Trypticase Soy Broth)	14C (IC50) [1]	MIC [5, 11] [µg/mL]	MIC [5, 12] [µg/mL]	SA/Tsoy (MIC) ([3]; Trypticase Soy Broth)	MIC ([6]; Mueller Hinton Broth, read-out: Ecoli/MH (MIC)) [µg/mL]	EF/Tsoy (MIC) ([4]; Trypticase Soy Broth)	EF/MH (MIC) ([4]; Mueller Hinton Broth)	IC50 [1] [µg/mL]	MIC [3, 7] [µg/mL]	MIC [3, 8] [µg/mL]	MIC [4, 9] [µg/mL]	MIC [4, 10] [µg/mL]	PSAE/MH (MIC) ([5]; Mueller Hinton Broth)	PSAE/Tsoy (MIC) ([5]; Trypticase Soy Broth)	Ecoli/MH (MIC) ([6]; Mueller Hinton Broth)	MIC [6, 13] [µg/mL]
C=CCNC(=O)[C@@H]1C(=C)C(=O)O[C@H]1CCCCCCCC (racemic)	0.9 ± 0.5 (≈ 3.07 µM)	–	–	–	–	–	–	–	–	0.75 ± 0.4 (≈ 2.56 µM)	9.1 ± 1.9 (≈ 31 µM)	12 ± 0.5 (≈ 40.9 µM)	36 (≈ 123 µM)	25 (≈ 85.2 µM)	Neg	Neg	–	–
C=CCNC(=O)[C@@H]1C(=C)C(=O)O[C@H]1CCCCCC (racemic)	0.85 ± 0.08 (≈ 3.2 µM)	Neg	–	–	–	–	–	–	–	3.3 (≈ 12.4 µM)	49 (≈ 185 µM)	47 (≈ 177 µM)	103 (≈ 388 µM)	38 (≈ 143 µM)	Neg	Neg	Neg	–
C=CCNC(=O)[C@@H]1C(=C)C(=O)O[C@H]1CCCC (racemic)	2.2 ± 0.3 (≈ 9.27 µM)	Neg	–	–	–	–	–	–	–	1.8 ± 0.3 (≈ 7.59 µM)	65 (≈ 274 µM)	96 (≈ 405 µM)	190 (≈ 801 µM)	67 (≈ 282 µM)	Neg	Neg	Neg	–
C=C1C(=O)O[C@@H](CCCCCCCC)[C@@H]1C(=O)NCC(=O)OC (racemic)	1.3 ± 0.09 (≈ 4 µM)	–	–	–	–	–	–	–	–	1.1 ± 0.03 (≈ 3.38 µM)	4.3 (≈ 13.2 µM)	26 (≈ 79.9 µM)	80 (≈ 246 µM)	245 (≈ 753 µM)	Neg	Neg	Neg	275 (≈ 845 µM)
C=C1C(=O)O[C@@H](CCCCCCCC)[C@@H]1C(=O)NCC(=O)O (racemic)	> 50	–	–	–	–	–	–	–	–	–	72 (≈ 231 µM)	52 (≈ 167 µM)	219 (≈ 703 µM)	215 (≈ 690 µM)	Neg	Neg	Neg	235 (≈ 755 µM)
